Broadly, the EC50 is the concentration at which the effect is half-maximal.

Where only a bound is given, the exact number is not on record here.

T1 sequence (P43116 whole entry): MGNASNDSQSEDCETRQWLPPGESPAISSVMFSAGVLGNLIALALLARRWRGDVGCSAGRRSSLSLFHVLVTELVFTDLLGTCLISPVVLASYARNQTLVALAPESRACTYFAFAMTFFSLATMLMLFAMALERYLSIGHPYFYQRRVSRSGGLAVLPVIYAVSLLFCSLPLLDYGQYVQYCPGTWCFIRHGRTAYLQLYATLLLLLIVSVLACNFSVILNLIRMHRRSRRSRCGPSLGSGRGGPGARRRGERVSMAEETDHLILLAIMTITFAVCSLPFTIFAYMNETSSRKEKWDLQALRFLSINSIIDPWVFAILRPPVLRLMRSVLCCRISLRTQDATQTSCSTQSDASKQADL

The first assay has as its target T1, human EP2 (Homo sapiens, UniProt P43116).
T1 construct: expressed in transfected cells; host or cells: CHO cells (EP2-CHO)
In words: Measurement of EP2 agonist activity (measurement of cAMP concentration). The settings on record: EP2-CHO cells, cAMP production (HTRF), reaction 30 minutes at room temperature; read-out: EP2 agonist activity EC50. The format is cell-based. On the procedure:
Using Chem1 cells or CHO cells in which various prostanoid receptors were forcibly expressed, respectively, agonist activities of test compounds on various prostanoid receptors was determined employing, as a measure, an intracellular cyclic AMP (hereinbelow, abbreviated as “cAMP”) production amount or an intracellular calcium concentration.
The test compound and a control substance (PGE2 and PGF2α) were dissolved in dimethyl sulfoxide (DMSO) to prepare a 10 mmol/L solution. The 10 mmol/L solution thus prepared was thawed upon use, then serially diluted with DMSO, and then diluted with a buffer solution for measurement use or a buffer solution for measurement use 2, and then the resulting solution was subjected to an experiment.
Cells forcibly expressing various prostanoid receptors were standing-cultured at 37° C. in the presence of 5% CO2 using a DMEM medium (Sigma) (for culturing FP-Chem1) containing inactivated (56° C., 30 minutes) 9.8 vol % nondialysed-FBS (Life Technologies), 1 vol % Non Essential Amino Acids (Life Technologies), 10 mmol/L HEPES Buffer Solution (Life Technologies), 0.5 vol % GENETICIN (Life Technologies) and 1% penicillin-streptomycin (Life Technologies) or an α-MEM medium (Sigma) (for culturing EP2-CHO) containing inactivated (56° C., 30 minutes) 9.8 vol % dialysed-FBS (Life Technologies) and penicillin-streptomycin-glutamine (Life Technologies). Subculturing was carried out by the following manner.
The medium was removed, and washed with a phosphate-buffered physiological saline not containing Ca^2+ and Mg^2+ one time. A proper amount of trypsin-EDTA (Life Technologies) was added, and this was incubated at room temperature, cells were peeled, and a medium having a volume which is 10-fold a volume of trypsin-EDTA was added to stop an enzymatic reaction. After cells were recovered into a centrifuging tube, and centrifuged at room temperature for 3 minutes at 120 g, the supernatant was removed. Cells were suspended in a proper amount of a medium, and seeded in a culturing flask.
On the measurement day, a medium was removed, and EP2-CHO was washed with a phosphate-buffered physiological saline containing 2 mmol/L EDTA and not containing Ca^2+ and Mg^2+ one time. A proper amount of the phosphate-buffered physiological saline containing 2 mmol/L EDTA and not containing Ca^2+ and Mg^2+ was added, this was incubated at 37° C. in the presence of 5% CO2, cells were peeled, cells were recovered into a centrifuging tube, and centrifuged at room temperature for 3 minutes at 550 g, and the supernatant was removed. Cells were suspended in a proper amount of a buffer solution for measurement 1 (MEM medium (Invitrogen) containing 1.0 w/v % bovine serum albumin (Sigma) and 2 μmol/L diclofenac (Sigma)), and centrifuged at room temperature for 3 minutes at 200 g, and the supernatant was removed. Cells were suspended in a buffer solution for measurement 2 (MEM medium (Invitrogen) containing 1.0 w/v % bovine serum albumin (Sigma), 2 μmol/L diclofenac (Sigma) and 1 mmol/L 3-isobutyl-1-methylxanthine), and each 25 μL of the suspension was dispensed into a 96-well ½ area plate so that the cell number per well became […]. A buffer solution for measurement 2 (25 μL) containing an agonist at a variety of concentrations was added to carry out a reaction at room temperature for 30 minutes. Measurement of a cAMP concentration was carried out using the cAMP HTRF HiRange kit (CIS bio International). According to the two step protocol of the kit manual, each 25 μL of cAMP-D2 and Cryptase diluted with a lysis buffer were added, and this was incubated at room temperature for 1 hour. After incubation for 1 hour, time resolution fluorescence at 620 nm and 660 nm when excited at 340 nm was measured using SpectraMax M5e (Molecular Device), and a ratio (TRF ratio) was obtained, thereby, a cAMP concentration was calculated from a calibration line. […]
On the technique in general: Cyclic AMP is a second messenger, typically raised through Gs and lowered through Gi signalling.
On to `O=C(O)c1csc([C@H]2CC[C@@H]3[C@@H](COc4ccc5c(c4)CC5)[C@H](O)C[C@@H]3O2)n1` [1(15), 2-{(2R,4aR,5S,6R,7aS)-5-[(bicyclo[4.2.0]octa-1,3,5-trien-3-yloxy)methyl]-6-hydroxyoctahydrocyclopenta[b]pyran-2-yl}-1,3-thiazole-4-carboxylic acid], for which the EC50 was 14 nM.

For the compound `O=C(O)c1csc([C@H]2CC[C@@H]3[C@@H](COc4ccc5c(c4F)CCC5)[C@H](O)C[C@@H]3O2)n1` [1(19), 2-[(2R,4aR,5S,6R,7aS)-5-{[(4-fluoro-2,3-dihydro-1H-inden-5-yl)oxy]methyl}-6-hydroxyoctahydrocyclopenta[b]pyran-2-yl]-1,3-thiazole-4-carboxylic acid], the EC50 was 2.4 nM.

As for `O=C(O)c1csc([C@H]2CC[C@@H]3[C@@H](COc4ccc5c(c4)CCCC5)[C@@H](O)C[C@@H]3O2)n1` [9(12), 2-{(2R,4aR,5S,6S,7aS)-6-hydroxy-5-[(5,6,7,8-tetrahydro-2-naphthalenyloxy)methyl]octahydrocyclopenta[b]pyran-2-yl}-1,3-thiazole-4-carboxylic acid], the concentration for a half-maximal effect (EC50) was 6.4 nM.

`O=C(O)c1csc([C@H]2CC[C@@H]3[C@@H](COc4ccc(Cl)c(C5CC5)c4)[C@H](O)C[C@@H]3O2)n1` [1(22), 2-{(2R,4aR,5S,6R,7aS)-5-[(4-chloro-3-cyclopropylphenoxy)methyl]-6-hydroxyoctahydrocyclopenta[b]pyran-2-yl}-1,3-thiazole-4-carboxylic acid]: the half-maximal effective concentration (EC50) is 2.3 nM.

Regarding `Cc1cc(OC[C@@H]2[C@H]3CC[C@H](c4nc(C(=O)O)cs4)O[C@H]3C[C@H]2O)ccc1Cl` [1(5), 2-{(2R,4aR,5S,6R,7aS)-5-[(4-chloro-3-methylphenoxy)methyl]-6-hydroxyoctahydrocyclopenta[b]pyran-2-yl}-1,3-thiazole-4-carboxylic acid], the half-maximal effective concentration (EC50) turned out to be 0.9 nM.

In the case of `Cc1ccc(OC[C@@H]2[C@H]3CC[C@H](c4nc(C(=O)O)cs4)O[C@H]3C[C@H]2O)cc1C` [1(7), 2-{(2R,4aR,5S,6R,7aS)-5-[(3,4-dimethylphenoxy)methyl]-6-hydroxyoctahydrocyclopenta[b]pyran-2-yl}-1,3-thiazole-4-carboxylic acid], the 50% effective concentration (EC50) came out at 3.3 nM.

On to `CCc1ccc(OC[C@@H]2[C@H]3CC[C@H](c4nc(C(=O)O)cs4)O[C@H]3C[C@@H]2O)cc1C1CCC1` [9(36), 2-{(2R,4aR,5S,6S,7aS)-5-[(3-cyclobutyl-4-ethylphenoxy)methyl]-6-hydroxyoctahydrocyclopenta[b]pyran-2-yl}-1,3-thiazole-4-carboxylic acid], for which the concentration for a half-maximal effect (EC50) was determined as 3.5 nM.

Turning to `O=C(O)c1csc([C@H]2CC[C@@H]3[C@@H](COc4ccccc4)[C@H](O)C[C@@H]3O2)n1` [1(27), 2-[(2R,4aR,5S,6R,7aS)-6-hydroxy-5-(phenoxymethyl)octahydrocyclopenta[b]pyran-2-yl]-1,3-thiazole-4-carboxylic acid], the half-maximal effective concentration (EC50) worked out at 12 nM.

Take `O=C(O)c1csc([C@H]2CC[C@@H]3[C@@H](COc4ccc5c(c4)CCC5)[C@@H](O)C[C@@H]3O2)n1` [9(1), 2-{(2R,4aR,5S,6S,7aS)-5-[(2,3-dihydro-1H-inden-5-yloxy)methyl]-6-hydroxyoctahydrocyclopenta[b]pyran-2-yl}-1,3-thiazole-4-carboxylic acid]: the 50% effective concentration (EC50) stood at 0.86 nM.

Turning to `O=C(O)c1csc([C@H]2CC[C@@H]3[C@@H](COc4cccc5c4CCC5)[C@H](O)C[C@@H]3O2)n1` [1(13), 2-{(2R,4aR,5S,6R,7aS)-5-[(2,3-dihydro-1H-inden-4-yloxy)methyl]-6-hydroxyoctahydrocyclopenta[b]pyran-2-yl}-1,3-thiazole-4-carboxylic acid], the EC50 turned out to be 1.1 nM.

As to `Cc1ccc(OC[C@@H]2[C@H]3CC[C@H](c4nc(C(=O)O)cs4)O[C@H]3C[C@@H]2O)cc1Cl` [9(3), 2-{(2R,4aR,5S,6S,7aS)-5-[(3-chloro-4-methylphenoxy)methyl]-6-hydroxyoctahydrocyclopenta[b]pyran-2-yl}-1,3-thiazole-4-carboxylic acid], the concentration giving a half-maximal response (EC50) was 0.16 nM.

As for `O=C(O)c1csc([C@H]2CC[C@@H]3[C@@H](COc4ccc5c(c4F)CCC5)[C@@H](O)C[C@@H]3O2)n1` [9(5), 2-[(2R,4aR,5S,6S,7aS)-5-{[(4-fluoro-2,3-dihydro-1H-inden-5-yl)oxy]methyl}-6-hydroxyoctahydrocyclopenta[b]pyran-2-yl]-1,3-thiazole-4-carboxylic acid], the 50% effective concentration (EC50) was found to be 0.91 nM.

As for `CSc1cc(OC[C@@H]2[C@H]3CC[C@H](c4nc(C(=O)O)cs4)O[C@H]3C[C@@H]2O)ccc1C` [9(25)], the EC50 was determined as 0.074 nM.

`O=C(O)c1csc([C@H]2CC[C@@H]3[C@@H](COc4ccc5c(c4)CCC5)[C@H](O)C[C@@H]3O2)n1` [1(6), 2-{(2R,4aR,5S,6R,7aS)-5-[(2,3-dihydro-1H-inden-5-yloxy)methyl]-6-hydroxyoctahydrocyclopenta[b]pyran-2-yl}-1,3-thiazole-4-carboxylic acid]: the EC50 was 7.5 nM.

As for `O=C(O)c1csc([C@H]2CC[C@@H]3[C@@H](COc4ccc5c(c4)CCCCC5)[C@@H](O)C[C@@H]3O2)n1` [9(33)], the EC50 came to 1.6 nM.

On to `Cc1cc(OC[C@@H]2[C@H]3CC[C@H](c4nc(C(=O)O)cs4)O[C@H]3C[C@H]2O)ccc1[N+](=O)[O-]` [1(4), 2-{(2R,4aR,5S,6R,7aS)-6-hydroxy-5-[(3-methyl-4-nitrophenoxy)methyl]octahydrocyclopenta[b]pyran-2-yl}-1,3-thiazole-4-carboxylic acid], for which the concentration giving a half-maximal response (EC50) came out at 0.5 nM.

As to `O=C(O)c1csc([C@H]2CC[C@@H]3[C@@H](COc4ccc5ccoc5c4)[C@H](O)C[C@@H]3O2)n1` [1(16), 2-{(2R,4aR,5S,6R,7aS)-5-[(1-benzofuran-6-yloxy)methyl]-6-hydroxyoctahydrocyclopenta[b]pyran-2-yl}-1,3-thiazole-4-carboxylic acid], the concentration for a half-maximal effect (EC50) came to 5.5 nM.

For the compound `CCc1ccc(OC[C@@H]2[C@H]3CC[C@H](c4nc(C(=O)O)cs4)O[C@H]3C[C@@H]2O)cc1C1CC1` [9(35), 2-{(2R,4aR,5S,6S,7aS)-5-[(3-cyclopropyl-4-ethylphenoxy)methyl]-6-hydroxyoctahydrocyclopenta[b]pyran-2-yl}-1,3-thiazole-4-carboxylic acid], the EC50 came out at 2.4 nM.

For the compound `CCc1cc(OC[C@@H]2[C@H]3CC[C@H](c4nc(C(=O)O)cs4)O[C@H]3C[C@@H]2O)ccc1C` [9(4), 2-{(2R,4aR,5S,6S,7aS)-5-[(3-ethyl-4-methylphenoxy)methyl]-6-hydroxyoctahydrocyclopenta[b]pyran-2-yl}-1,3-thiazole-4-carboxylic acid], the EC50 came to 0.33 nM.

`CCc1ccc(OC[C@@H]2[C@H]3CC[C@H](c4nc(C(=O)O)cs4)O[C@H]3C[C@@H]2O)cc1CC` [9(23), 2-{(2R,4aR,5S,6S,7aS)-5-[(3,4-diethylphenoxy)methyl]-6-hydroxyoctahydrocyclopenta[b]pyran-2-yl}-1,3-thiazole-4-carboxylic acid]: the 50% effective concentration (EC50) stood at 1.6 nM.

Regarding `O=C(O)c1csc([C@H]2CC[C@@H]3[C@@H](COc4ccc5[nH]ccc5c4)[C@H](O)C[C@@H]3O2)n1` [1(12), 2-{(2R,4aR,5S,6R,7aS)-6-hydroxy-5-[(1H-indol-5-yloxy)methyl]octahydrocyclopenta[b]pyran-2-yl}-1,3-thiazole-4-carboxylic acid], the half-maximal effective concentration (EC50) came out at 19 nM.

The assay is the same for the next values; noted with them: prior-art compounds having an analogous structure, same EP2 test; read-out: EP2 agonist activities, EC50 values.
On to `O=C(O)c1ccc(C2=CC[C@@H]3[C@@H](/C=C/[C@@H](O)C4CCCC4)[C@H](O)C[C@@H]3O2)o1` [reference compound], for which the EC50 is at least 10000 nM.

As for `O=C(O)c1csc([C@H]2CC[C@@H]3[C@@H](/C=C/[C@@H](O)COc4ccccc4)[C@H](O)C[C@@H]3OC2)n1` [reference compound], the half-maximal effective concentration (EC50) was at least 10000 nM.

Source of the values: patent US9890146B2, “Compound having selective EP2 agonist activity” (ONO PHARMACEUTICAL CO., LTD., priority 2014, dated 2018).
